Measurements taken from patent US8288423B2, “FXa inhibitors with cyclic amidines as P4 subunit, processes for their preparations, and pharmaceutical compositions and derivatives thereof” (Legochem Bioscience Ltd., priority 2007, dated 2012).
Values after ≈ are worked out from the molar mass of the structure shown. Like-named read-outs stand apart in the source and are kept apart here.

Legend:
plasma = experiment: Measurement of aPTT (activated partial thromboplastin time) in plasma; type: biochemical; set-up: unit not given here; conditions: STA-PTT, CaCl2, 37° C., unit not given
Procedure: The effect of oxazolidinone derivatives with cyclic amidines represented by Chemical Formula (1) according to the invention on blood coagulation was compared by measuring PT (prothrombin time) and aPTT (activated Partial Thromboplastin Time). The procedure of measurement is described below. A solution (5 μL) of the oxazolidinone derivative with cyclic amidine group represented by Chemical Formula (1) according to the invention (in a various concentration gradient, 5% DMSO solution) was added to the plasma ([…]), and the reaction was carried out at 37° C. for 2 minutes. STA-PTT (Diagnostica Stago) (50 μL) was then added thereto. After the reaction at 37° C. for additional 5 minutes, 25 mM CaCl2 (50 μL) was added thereto, and the duration for plasma coagulation was measured. The duration for plasma coagulation was determined as the point when the absorbance at 340 nm reaches 0.1.

thrombus formation = experiment: % inhibition against thrombus formation, arteriovenous shunt model in white rats; type: in vivo, white rats (male Sprague Dawley); set-up: concentration or dose not given beside the values; conditions: orally administered 1 hour before opening of the shunt; 15 minutes circulation; versus control group
Procedure: 3) Determination of % Inhibition Against Thrombus Formation by Means of Arteriovenous Shunt Model ([…]) in White Rats Antithrombotic effect of the compounds according to the present invention was evaluated by using arteriovenous shunt model in white rats. The animals used were male Sprague Dawleys with the body weight of 200-250 g. For one day before the experiment, the animals were fasted. Five to six animals were used for each test group. The compound of Example was orally administered 1 hour before opening of the shunt. The rats were anesthetized by abdominal administration of Rompun (Bay HealthCare) and Chloral hydrate or urethane in an amount of 12 and 50 mg per kg of the body weight. Into the left carotid artery and right jugular vein of the white rat, a polyethylene(PE)-60 tubing filled with physiological saline was inserted and secured. Both ends of individual PE tubing were connected to a silicone tubing having a length of 5 cm in which a cotton thread have been incorporated diagonally, and the shunt was open to provide circulation for 15 minutes. The shunt was then compressed by using jaws, and the cotton thread was carefully removed and the thrombus generated was weighed. The % inhibition of thrombus formation was calculated by using the weight of thrombus obtained from white rats of the control group to which a solution of oral administration was administered.

plasma protein = experiment: Determination of plasma protein binding (ultrafiltration, LC-MS/MS); type: in vitro ADME; conditions: citrated plasma, 37° C., 60 minutes, Ultracel-10 filter
Procedure: Citrated plasma was purchased from Daejeon-Chungnam Blood Institute (located at Daejeon, Korea). A compound solution (500 μM in DMSO) (10 μL), according to the invention Was added to the plasma (1 mL), and the reaction was carried out at 37° C. and 120 rpm for 60 minutes. To three wells of Ultracel-10 filter plate (Millipore), the reaction solution was transferred (300 μL each). Then, the plasma solution (70 μL) was taken, and the total concentration of the compound was quantified by means of LC-MS/MS (API3000, ABI). After centrifuging the Ultracel-10 filter plate at 37° C. and 2000×g for 45 minutes, the filtrate was taken to determine the concentration of the compound which was not bound to the plasma protein. Percentage of plasma protein binding was obtained via Equation (2): % Protein binding=(1−concentration of compound in filtrate/concentration of compound in entire solution)×100% Free=100−% Protein binding [Equation 2]

[1] = Determination of aqueous solubility; type: physicochemical; conditions: aqueous with cosolvent or surfactant or cyclodextrin, kinetic from dmso stock; 100 mM potassium phosphate buffer pH 7.4, 5% DMSO, final concentration 500 μM, ambient temperature 90 minutes
Procedure: The plate was agitated at ambient temperature for 90 minutes with a rate of 225 rpm. After agitation, the content of the plate was filtered with application of pressure. The filtrate (160 μL) was individually transferred to a uv-96 well plate (Costar), and mixed with 40 μL of acetonitrile, and then agitated at ambient temperature for 10 minutes with a rate of 225 rpm. By means of a plate reader (Molecular Devices, Spectramax 190), absorbances at the wavelengths of 280, 300, 320, 340, 360 and 800 nm were measured. As a reference solution, employed was 100 mM potassium phosphate buffer (pH 7.4) containing 20% acetonitrile added by 10 mM DMSO solution (8 μL).

Citrated plasma = experiment: Measurement of PT (prothrombin time) in citrated plasma; type: biochemical; conditions: STA-Neoplastine, 37° C., unit not given (2×PT value)
Procedure: The effect of oxazolidinone derivatives with cyclic amidines represented by Chemical Formula (1) according to the invention on blood coagulation was compared by measuring PT (prothrombin time) and aPTT (activated Partial Thromboplastin Time). The procedure of measurement is described below. Citrated plasma was purchased from Daejeon-Chungnam Blood Institute (located at Daejeon, Korea). A compound solution (5 μL) according to the invention (in a various concentration gradient, 5% DMSO solution) was added to the plasma ([…]), and the reaction was carried out at 37° C. for 5 minutes. STA-Neoplastine (Diagnostica Stago) (100 μL) was then added thereto, and the duration for plasma coagulation was measured. The duration for plasma coagulation is determined as the point when the absorbance at 340 nm reaches 0.1.

factor Xa [2] = target: T1, factor Xa (Homo sapiens, UniProt P00742); experiment: Inhibiting activity of factor Xa inhibitor (chromogenic substrate S-2765); type: biochemical; conditions: calculated from IC50 by Equation 1, Km 125 μM; S-2765 substrate, pH 7.8, 37° C.; read-out: Ki (nM), factor Xa inhibition constant
T1 construct: purchased Enzyme Research Laboratories
T1 sequence (P00742 235-488 limits assumed): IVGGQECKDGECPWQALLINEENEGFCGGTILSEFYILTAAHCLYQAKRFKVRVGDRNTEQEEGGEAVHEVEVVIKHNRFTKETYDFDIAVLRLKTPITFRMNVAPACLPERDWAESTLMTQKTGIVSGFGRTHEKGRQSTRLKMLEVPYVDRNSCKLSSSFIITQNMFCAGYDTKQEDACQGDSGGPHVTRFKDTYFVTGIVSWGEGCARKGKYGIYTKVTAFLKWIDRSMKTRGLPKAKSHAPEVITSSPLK
T1 sequence (P00742 41-179 partner limits assumed): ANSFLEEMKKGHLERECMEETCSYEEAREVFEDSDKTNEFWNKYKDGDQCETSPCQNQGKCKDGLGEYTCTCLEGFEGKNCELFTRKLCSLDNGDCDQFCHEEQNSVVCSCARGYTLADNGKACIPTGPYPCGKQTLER
Procedure: Relative rate of hydrolysis (as compared to control group without inhibition) was plotted versus logarithm of the concentration of the oxazolidinone derivative with a cyclic amidine represented by Chemical Formula (1) according to the invention, to obtain the concentration of the inhibitor for 50% decrease in the rate of hydrolysis of the substrate.
The inhibition constant can be obtained by spectrophotometry whereby the color development is determined as a function of time, after being reacted with a specific substrate which develops color upon hydrolysis caused by action of factor Xa.
For the inhibitor solution, the inhibitor compound according to the present invention was diluted with dimethylsulfoxide (DMSO) in 10 mM, and then further diluted with third-distilled water (finally 10% DMSO solution), and the solution (10 μL) was added to each well. […] The substrate solution (20 μL) thus prepared was added to each well.
Kinetic analysis of the reaction was performed by a kinetic plate reader (Molecular Devices, Spectramax 190) at 37° C. for 20 minutes.
Relative rate of hydrolysis (compared to control group without inhibition) versus logarithm of the oxazolidinone derivative with a cyclic amidine group (Chemical Formula I) was plotted to obtain the concentration of the inhibitor to decrease the rate of hydrolysis of the substrate by 50%. GraFit (version 5.0.12) program for statistical process purchased from Erithacus Software was employed.
When inhibition constant Ki is calculated, it can be calculated according to Equation (1).

factor Xa [3] = target: T1, factor Xa; conditions: background art; cited from earlier work

Compound | APTT (plasma) | % Inhibition (of thrombus formation) (thrombus formation) | Plasma protein binding (% Free) (plasma protein) | solubility at 90 min [1] | PT (Citrated plasma) | Ki (factor Xa [2]) | Ki (factor Xa [3])
O=C(NC[C@H]1CN(c2ccc(C3=NCCN3)cc2)C(=O)O1)c1ccc(Cl)s1 [Compound 100, 5-chlorothiophene-2-carboxylic acid {(S)-3-[4-(4,5-dihydro-1H-imidazol-2-yl)-phenyl]-2-oxo-oxazolidin-5-ylmethyl}-amide] | 2.29 | 40% | 17 % Free | 441 µM (≈ 179 µg/mL) | 0.22 | 47 nM | –
CN1CCN=C1c1ccc(N2C[C@H](CNC(=O)c3ccc(Cl)s3)OC2=O)cc1 [Compound 101, 5-chlorothiophene-2-carboxylic acid {(S)-3-[4-(1-methyl-4,5-dihydro-1H-imidazol-2-yl)-phenyl]-2-oxo-oxazolidin-5-ylmethyl}-amide] | 0.22 | 2% | 23 % Free | 434 µM (≈ 182 µg/mL) | 0.05 | 2.97 nM | –
CCN1CCN=C1c1ccc(N2C[C@H](CNC(=O)c3ccc(Cl)s3)OC2=O)cc1 [Compound 102, 5-chlorothiophene-2-carboxylic acid {(S)-3-[4-(1-ethyl-4,5-dihydro-1H-imidazole-2-yl)-phenyl]-2-oxo-oxazolidin-5-ylmethyl}-amide] | 0.17 | 26% | 28 % Free | 462 µM (≈ 200 µg/mL) | 0.04 | 3.43 nM | –
CN1CCCN=C1c1ccc(N2C[C@H](CNC(=O)c3ccc(Cl)s3)OC2=O)cc1 [Compound 107, 5-chlorothiophene-2-carboxylic acid {(S)-3-[4-(1-methyl-1,4,5,6-tetrahydropyrimidine-2-yl)-phenyl]-2-oxo-oxazolidin-5-ylmethyl}-amide] | 0.28 | 50% | 31 % Free | 411 µM (≈ 178 µg/mL) | 0.09 | 5.7 nM | –
CCC1=NCCN1c1ccc(N2C[C@H](CNC(=O)c3ccc(Cl)s3)OC2=O)cc1 [Compound 116] | 0.18 | 65% | – | – | 0.05 | 3.46 nM | –
O=C(NC[C@H]1CN(c2ccc(N3CCN=C3C3CC3)cc2)C(=O)O1)c1ccc(Cl)s1 [Compound 117] | 0.29 | 68% | 17 % Free | 484 µM (≈ 215 µg/mL) | 0.04 | 3.18 nM | –
O=C(NC[C@H]1CN(c2ccc(N3CCN=C3c3ccco3)cc2)C(=O)O1)c1ccc(Cl)s1 [Compound 123] | 0.26 | 71% | 3 % Free | 474 µM (≈ 223 µg/mL) | 0.07 | 0.39 nM | –
O=C(NC[C@H]1CN(c2ccc(N3CCN=C3c3ccoc3)cc2)C(=O)O1)c1ccc(Cl)s1 [Compound 124] | 0.26 | 52% | – | – | 0.07 | 1.71 nM | –
Cc1ccc(C2=NCCN2c2ccc(N3C[C@H](CNC(=O)c4ccc(Cl)s4)OC3=O)cc2)s1 [Compound 131] | 0.39 | 0% | – | – | 0.08 | 0.69 nM | –
O=C(NC[C@H]1CN(c2ccc(N3CCN=C3c3ccc(Cl)s3)cc2)C(=O)O1)c1ccc(Cl)s1 [Compound 132] | 0.88 | 60% | – | – | 0.29 | 1.09 nM | –
COC(=O)C1(C2=NCCN2c2ccc(N3C[C@H](CNC(=O)c4ccc(Cl)s4)OC3=O)cc2)CC1 [Compound 135] | 1.34 | 62% | – | – | 0.15 | 31.5 nM | –
CC1=NCCN1c1ccc(N2C[C@H](CNC(=O)c3ccc(Br)s3)OC2=O)cc1 [Compound 138] | 0.16 | 27% | – | – | 0.04 | 2.38 nM | –
O=C(NC[C@H]1CN(c2ccc(N3CCN=C3c3ccco3)cc2)C(=O)O1)c1ccc(Br)s1 [Compound 139] | 0.47 | 60% | – | – | 0.07 | 1.47 nM | –
CCC1=NCCCN1c1ccc(N2C[C@H](CNC(=O)c3ccc(Cl)s3)OC2=O)cc1 [Compound 142] | 0.17 | 47% | – | – | 0.04 | 2.52 nM | –
tick anticoagulant peptide (YNRLCIKPRDWIDECDSNEGGERAYFRNGKGGCDSFWICPEDHTGADYYSSYRDCFNACI; UniProt P17726 1-60, looked up) [TAP] | – | – | – | – | – | – | 0.5 nM
